Measured values: patent publication EP4603105A1, “PHARMACEUTICAL COMPOSITION CONTAINING CYCLIC COMPOUND HAVING SELECTIVE KRAS INHIBITORY EFFECT AGAINST HRAS AND NRAS” (CHUGAI SEIYAKU KABUSHIKI KAISHA, priority 2022, dated 2024)
Like-named read-outs stand apart in the source and are kept apart here.

Columns and labels:
[1] = molecular target: GDP-bound KRAS wild-type protein (Homo sapiens, UniProt P01116); experiment: Binding to KRAS by surface plasmon resonance (SPR), dissociation constant KD
Outline: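 GDP-bound biotin-Avi RAS captured at ~100–300 RU, 30°C, pH 7.4 HBS containing 10 µM GDP, 10 mM MgCl2, 1 mM DTT, 0.01% Tween 20 and 4% DMSO. KD by 1:1 fitting.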

[2] = molecular target: GDP-bound NRAS wild-type protein (Homo sapiens, UniProt P01111); experiment: Binding to NRAS by surface plasmon resonance (SPR), KD and KD ratio to KRAS
Sequence of GDP-bound NRAS wild-type protein (P01111 whole entry): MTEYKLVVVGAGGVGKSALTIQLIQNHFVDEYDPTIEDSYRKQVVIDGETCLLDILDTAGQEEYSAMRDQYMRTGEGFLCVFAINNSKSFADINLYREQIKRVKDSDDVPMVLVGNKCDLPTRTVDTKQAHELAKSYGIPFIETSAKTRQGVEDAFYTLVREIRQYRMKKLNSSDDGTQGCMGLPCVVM
Outline: (§1)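 GDP-loaded biotinylated Avi-tag RAS proteins (E. coli-expressed) captured on a Biotin CAPture chip at ~100–300 RU; single-cycle kinetics at 30°C, 100 µL/min, 75 s injections of rising compound concentrations. HBS pH 7.4 running buffer with 1 mM DTT, 10 mM MgCl2, 10 µM GDP, 4% DMSO. KD from 1:1 binding fit.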

[3] = tested on: human lung cancer strain NCI-H441; experiment: NCI-H441 cell proliferation inhibitory activity (CellTiter-Glo, 4 days); assay type: cell-based; conditions: read-out: NCl-H441 IC50
Procedure: A test compound was dispensed into a U-bottom 384-well plate as 40 nL serially diluted dimethyl sulfoxide solutions using a liquid handler Echo (LABCYTE). […] This cell suspension was dispensed in an amount of 40 µL per well into a plate containing the test compound, and cultured at 37°C in a 5% carbon dioxide gas incubator. Four days later, 20 µL of CellTiter-Glo (registered trademark) (Promega) was added to each well and […] was measured. […]

HRAS wild-type protein = HRAS wild-type protein (Homo sapiens, UniProt P01112); experiment: Binding to HRAS by surface plasmon resonance (SPR), KD and KD ratio to KRAS
Sequence of HRAS wild-type protein (P01112 whole entry): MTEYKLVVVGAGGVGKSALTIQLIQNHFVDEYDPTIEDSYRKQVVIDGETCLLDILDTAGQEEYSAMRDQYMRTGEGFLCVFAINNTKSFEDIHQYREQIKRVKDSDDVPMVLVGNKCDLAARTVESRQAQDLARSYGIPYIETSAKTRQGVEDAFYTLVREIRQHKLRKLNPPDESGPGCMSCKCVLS
Outline: as §1

[4] = ratio of KD for GDP-bound NRAS wild-type protein to KD for KRAS
[5] = ratio of KD for HRAS wild-type protein to KD for KRAS
[6] = Single Cycle Kinetics, 1:1 binding model
[7] = ratio of KD with respect to GDP-bound NRAS wild-type protein to KD with respect to KRAS
[8] = 50% proliferation inhibitory concentration, four days
[9] = ratio of KD with respect to HRAS wild-type protein to KD with respect to KRAS

Sequence of GDP-bound KRAS wild-type protein (P01116 1-188 isoform P01116-2): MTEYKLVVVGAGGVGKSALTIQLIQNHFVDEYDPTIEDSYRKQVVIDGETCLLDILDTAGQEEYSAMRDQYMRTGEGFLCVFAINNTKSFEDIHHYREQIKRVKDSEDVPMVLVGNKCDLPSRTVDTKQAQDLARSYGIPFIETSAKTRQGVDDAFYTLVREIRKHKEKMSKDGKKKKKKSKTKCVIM

SMILES | Kd ([1]; Single Cycle Kinetics) [nM] | NRAS /KRAS [2, 4] | IC50 ([3]; NCI-H441 cells, 4 days) [nM] | HRAS /KRAS (HRAS wild-type protein; [5]) | Kd ([1]; 1:1 binding model) [nM] | Kd [1, 6] [nM] | NRAS /KRAS [2, 7] | IC50 [3, 8] [nM] | HRAS /KRAS (HRAS wild-type protein; [9])
CCC[C@H]1C(=O)N[C@@H]([C@@H](C)CC)C(=O)N(C2CC2)CC(=O)N(C)[C@H]2C/C(F)=C\CCN(C2=O)[C@@H](Cc2ccc(C(F)(F)F)cc2)C(=O)N(C)CC(=O)N[C@@H](CCc2cc(F)c(C(F)(F)F)c(F)c2)C(=O)N2C[C@H](OCC)C[C@H]2C(=O)NC2(CCC2)C(=O)N(C)[C@@H](C2CCCC2)C(=O)N(C)[C@H](C(=O)N(C)C)CC(=O)N1C [PP3518] | 0.64 | B (a compound having 3 or more and less than 10 is denoted as B) | 19.2 | B (a compound having 3 or more and less than 10 is denoted as B) |  |  |  |  | 
CCCOC[C@H]1C(=O)N[C@@H]([C@@H](C)OCCC)C(=O)N(CCC)CC(=O)N(C)[C@H]2C/C=C\CCN(C2=O)[C@@H](Cc2ccc(C(F)F)cc2)C(=O)N(C)CC(=O)N[C@@H](CCc2cc(F)c(C(F)(F)F)c(F)c2)C(=O)N2C[C@H](OC(C)C)C[C@H]2C(=O)N(C)C2(CCC2)C(=O)N(C)[C@@H](C(CC)CC)C(=O)N(C)[C@H](C(=O)N(C)C)CC(=O)N1C [PP3488] | 0.71 | A (a compound having 10 or more and less than 20 is denoted as A) | 30.7 | A (a compound having 10 or more and less than 20 is denoted as A) |  |  |  |  | 
CCC[C@H]1C(=O)N[C@@H]([C@@H](C)CC)C(=O)N(C2CC2)CC(=O)N(C)[C@H]2C/C(F)=C\CCN(C2=O)[C@@H](Cc2ccc(C)cc2)C(=O)N(C)CC(=O)N[C@@H](CCc2cc(F)c(C(F)(F)F)c(F)c2)C(=O)N2C[C@H](OCC)C[C@H]2C(=O)N(C)C2(CCC2)C(=O)N(C)[C@@H](C2CCCC2)C(=O)N(C)[C@H](C(=O)N(C)C)CC(=O)N1C [PP3527] | 0.38 | B (a compound having 3 or more and less than 10 is denoted as B) | 7.2 | B (a compound having 3 or more and less than 10 is denoted as B) |  |  |  |  | 
CCC[C@H]1C(=O)N[C@@H]([C@@H](C)CC)C(=O)N2CCC[C@H]2C(=O)N(C)[C@H]2C/C=C\CCN(C2=O)[C@@H](Cc2ccc(C(F)F)cc2)C(=O)N(C)CC(=O)N[C@@H](CCc2ccc(Cl)c(Cl)c2)C(=O)N2C[C@H](OCC)C[C@H]2C(=O)NC2(CC(C)(C)C2)C(=O)N(C)[C@@H](C(CC)CC)C(=O)N(C)[C@H](C(=O)N(C)C)CC(=O)N1C [PP2637] |  | AA (a compound having 20 or more is denoted as AA) | 61.4 | A (a compound having 10 or more and less than 20 is denoted as A) | 1 |  |  |  | 
CCC[C@H]1C(=O)N[C@@H]([C@@H](C)CC)C(=O)N(C)CC(=O)N(C)[C@H]2C/C=C\CCN(C2=O)[C@@H](Cc2ccc(C(F)(F)F)cc2)C(=O)N(C)CC(=O)N[C@@H](CCc2ccc(C(F)(F)F)c(OC)c2)C(=O)N2C[C@H](OCC)C[C@H]2C(=O)NC2(CC(C)(C)C2)C(=O)N(C)[C@@H](CC2CCC2)C(=O)N(C)[C@H](C(=O)N(C)C)CC(=O)N1C [PP2764] |  | A (a compound having 10 or more and less than 20 is denoted as A) | 55.8 | A (a compound having 10 or more and less than 20 is denoted as A) | 0.85 |  |  |  | 
CCO[C@@H]1C[C@H]2C(=O)NC3(CCC3)C(=O)N(C)[C@@H](C3CCCC3)C(=O)N(C)[C@H](C(=O)N(C)C)CC(=O)N(C)[C@@H](CC3CCCC3)C(=O)N[C@@H]([C@@H](C)CC)C(=O)N(C)CC(=O)N(C)[C@H]3C/C=C\CCN(C3=O)[C@@H](Cc3ccc(C(F)(F)F)cc3)C(=O)N(C)CC(=O)N[C@@H](CCc3ccc(C(F)(F)F)c(OC)c3)C(=O)N2C1 [PP1248] |  |  |  |  |  | 0.069 | A (a compound having 10 or more and less than 20 is denoted as A) | 7.3 | A (a compound having 10 or more and less than 20 is denoted as A)
CCO[C@@H]1C[C@H]2C(=O)NC3(CCC3)C(=O)N(C)[C@@H](C3CCCC3)C(=O)N(C)[C@H](C)CC(=O)N(C)[C@@H](CC3CCCC3)C(=O)N[C@@H]([C@@H](C)CC)C(=O)N(C)CC(=O)N(C)[C@H]3C/C=C\CCN(C3=O)[C@@H](Cc3ccc(C)cc3)C(=O)N(C)CC(=O)N[C@@H](CCc3cc(F)c(C(F)(F)F)c(F)c3)C(=O)N2C1 [PP1413] |  |  |  |  |  | 0.42 | B (a compound having 3 or more and less than 10 is denoted as B) | 62.5 | B (a compound having 3 or more and less than 10 is denoted as B)
CCC(CC)[C@H]1C(=O)N(C)[C@H](C(=O)N(C)C)CC(=O)N(C)[C@@H](COC)C(=O)N[C@@H]([C@@H](C)CC)C(=O)N(C2CC2)CC(=O)N(C)[C@H]2C/C=C\CCN(C2=O)[C@@H](CC2CCCCC2)C(=O)N(C)CC(=O)N[C@@H](CCc2ccc(Cl)c(Cl)c2)C(=O)N2C[C@H](OC(C)C)C[C@H]2C(=O)NC2(CC(C)(C)C2)C(=O)N1C [PP2517] |  |  | 562 | A (a compound having 10 or more and less than 20 is denoted as A) | 9.3 |  |  |  | 
CCCOC[C@H]1C(=O)N[C@@H]([C@@H](C)OCC)C(=O)N(C)CC(=O)N(C)[C@H]2C/C=C\CCN(C2=O)[C@@H](Cc2ccc(C)cc2)C(=O)N(C)CC(=O)N[C@@H](CCc2ccc(C(F)(F)F)c(OC)c2)C(=O)N2C[C@@H](C)C[C@H]2C(=O)NC2(CC(C)(C)C2)C(=O)N(C)[C@@H](C2CCCC2)C(=O)N(C)[C@H](C(=O)N(C)CC)CC(=O)N1C [PP2423] |  | A (a compound having 10 or more and less than 20 is denoted as A) | 71.9 | A (a compound having 10 or more and less than 20 is denoted as A) |  |  |  |  | 
CCCCCC[C@H]1C(=O)N[C@@H]([C@@H](C)CC)C(=O)N(C)CC(=O)N(C)[C@H]2C/C=C\CCN(C2=O)[C@@H](Cc2ccc(C(F)(F)F)cc2)C(=O)N(C)CC(=O)N[C@@H](CCc2cc(F)c(C(F)(F)F)c(F)c2)C(=O)N2C[C@H](OCC)C[C@H]2C(=O)NC2(CCC2)C(=O)N(C)[C@@H](C(CC)CC)C(=O)N(C)[C@H](C(=O)N(C)C)CC(=O)N1C [PP1202] |  |  |  |  |  | 0.4 |  | 24.1 | 
CCO[C@@H]1C[C@H]2C(=O)NC3(CCC3)C(=O)N(C)[C@@H](C3CCCC3)C(=O)N(C)[C@@H](C(=O)N(C)C)CC(=O)N(C)[C@@H](CC3CCCC3)C(=O)N[C@@H]([C@@H](C)CC)C(=O)N(C)CC(=O)N(C)[C@H]3C/C=C\CCN(C3=O)[C@@H](Cc3ccc(C(F)(F)F)cc3)C(=O)N(C)CC(=O)N[C@@H](CCc3cc(F)c(C(F)(F)F)c(F)c3)C(=O)N2C1 [PP1235] |  |  |  |  |  |  | B (a compound having 3 or more and less than 10 is denoted as B) | 386 | C (A compound having a KD ratio of 0.1 or more and less than 3 is denoted as C)
CC[C@H](C)[C@@H]1NC(=O)[C@H](CC)N(C)C(=O)C[C@@H](C(=O)N2CCOCC2)N(C)C(=O)[C@H](C2CCCC2)N(C)C(=O)C2(CCCC2)NC(=O)[C@@H]2CCCN2C(=O)[C@H](CCc2cc(F)c(C(F)(F)F)c(F)c2)NC(=O)CN(C)C(=O)[C@H](Cc2ccc(C(F)(F)F)cc2)N2CC(C)[C@@H](C)C[C@@H](C2=O)N(C)C(=O)CN(C)C1=O (stereo partly shown) [PP1350] |  |  |  |  |  |  | B (a compound having 3 or more and less than 10 is denoted as B) | 20.1 | B (a compound having 3 or more and less than 10 is denoted as B)
CC[C@H](C)[C@@H]1NC(=O)[C@H](COC)N(C)C(=O)C[C@@H](C(=O)N(C)C)N(C)C(=O)[C@H](C2CCCC2)N(C)C(=O)C2(CC(C)(C)C2)NC(=O)[C@@H]2C[C@@H](OC3CCCC3)CN2C(=O)[C@H](CCc2cc(F)c(C(F)(F)F)c(F)c2)NC(=O)CN(C)C(=O)[C@H](Cc2ccc(C)cc2)N2CC/C=C\C[C@@H](C2=O)N(C)C(=O)CN(C2CC2)C1=O [PP2626] |  | A (a compound having 10 or more and less than 20 is denoted as A) | 33.4 | A (a compound having 10 or more and less than 20 is denoted as A) |  |  |  |  | 
CC[C@H](C)[C@@H]1NC(=O)[C@H](CC)N(C)C(=O)C[C@@H](C(=O)N(C)C)N(C)C(=O)[C@H](C2CCCC2)N(C)C(=O)C2(CCC2)NC(=O)[C@@H]2C[C@@H](C(F)(F)F)CN2C(=O)[C@H](CCc2cc(F)c(C(F)(F)F)c(F)c2)NC(=O)CN(C)C(=O)[C@H](CC2CCC(F)(F)CC2)N2CC/C=C\C[C@@H](C2=O)N(C)C(=O)CN(C)C1=O [PP1451] |  |  |  |  |  |  |  | 61.1 | 
